These results are taken from US10111880B2, “Compounds for the treatment of diabetes and disease complications arising from same” (BEN-GURION UNIVERSITY OF THE NEGEV RESEARCH AND DEVELOPMENT …, priority 2013, dated 2018).

Holding throughout (assay type): in vivo, mouse
The subject of assay [1] is insulin expressing beta islets. Put plainly: Immunofluorescence of pancreatic slices with anti-insulin antibody, insulin expressing beta islets in mice. The conditions noted are these: for pancreatic beta cell mass: summary statement. How it is done:
The light grey (originally red) stains insulin producing cells, and the darker grey (originally blue) is for DAPI staining. Density of insulin staining per area was measured using “Image J” software (D-E). The results are mean±S.E.; n=4. ***p<0.005. Magnification: ×10.

Assay [2] deals with STZ-induced diabetic ICR mice. Briefly: Glucose tolerance test in STZ mice after short course (2 weeks) AGS treatment. The procedure: (§1) Eight weeks-old female ICR mice were injected intraperitoneally (IP) with Streptozotocin (STZ), at a dose of 40 mg/Kg, for 5 consecutive days. The following day and onward, mice were administered the AGS compounds (499 or 500, as indicated), at a dose of 6 mg/Kg, either subcutaneously or orally, every other day. Blood glucose levels were monitored daily.
(§2) After the establishment of diabetes (i.e. three consecutive blood glucose measurements of >200 mg/dL), mouse groups were further sub-divided into 2 sub-groups, one of each received insulin (gradual administration of 0.5-6 units/Kg, over a period of 2 weeks) subcutaneously, every other day. Blood glucose levels were monitored daily.
Glucose tolerance tests were also performed as follows: After two weeks mice were fasted for 12 hours, then injected with D-glucose (1.5 g/Kg, IP) and blood glucose levels were examined at 0, 10, 20, 30, 60, 90 and 120 minutes, in order to evaluate pancreatic function.

Assay [3] concerns STZ-induced diabetic ICR mice. Briefly: Blood glucose in STZ-induced diabetic ICR mice, long-term AGS treatment (5 months) with or without insulin. To be noted: for circulating glucose levels in diabetic animals: summary statement. Details: Blood Glucose At 101 day / Blood Glucose At 111 day: unit: mg/dL. How it is done: [0182]7 week-old female ICR mice were intra-peritoneally injected with STZ (40 mg\Kg) for 5 consecutive days. Non-diabetic mice received citrate buffer (pH 4.3, cold), which served as the vehicle controls for this study. AGS-500 (6 mg\Kg) was then administered subcutaneously every 2 days, for 5 months, on the first day after STZ administration. A further control group, where DMSO was administered in accordance with this regimen, was included. Mice were divided into the following 6 groups (10 mice per group except STZ only-5 mice): • STZ only • STZ+DMSO • Citrate+DMSO 1% every day • STZ+AGS-499 (6 mg/kg) injected every day S.C • STZ+AGS-500 (6 mg/kg) injected every day S.C • STZ+AGS-500 (6 mg/kg) injected every other day S.C Mice were weighed and blood glucose levels were measured using a free style glucometer. Food consumption was also measured 24 hours prior to STZ injection. The concentration of STZ to be injected was calculated. STZ at 40 mg/kg was injected ip for 5 consecutive days. AGS treatment was administered one day following the last STZ injection. The establishment of diabetes was validated by the assessment of blood glucose levels performed every 3 days (at the beginning) and once a week after 59 days from the initiation of the experiment. Blood glucose levels over 200 mg/dl (measured 3 consecutive times) indicated a diabetic state. At 80 days from the initiation of the experiments each group was divided to 2 subgroups which received either insulin (4 units/kg) or acetic acid (0.015%) both in HEPES buffer (pH 7.45) injected every 48 hours. Mice were sacrificed after 5 months from the initiation of the experiments. Blood glucose levels were monitored every 3 days. Ten weeks after the beginning of this study, each group was divided into 2 sub-groups, one of each also received insulin (4 U\Kg) every 2 days, except for the non-diabetic sub-groups. Acetic acid (1%) served as the vehicle control.

Assay [4] relates to STZ-induced diabetic ICR mice. Put plainly: Glucose Tolerance Test (GTT) in STZ diabetic mice after 2 and 5 months. The conditions noted are these: daily. How it is done: Glucose Tolerance Test: Animals were fasted for 12 hr with free access to water. Blood-glucose levels after fast were measured and then the animals received an i.p. injection of glucose (1.5 g/kg). Blood samples were taken at several intervals (for the duration of 2 hr), when glucose levels above 200 mg/dl at 2 hr confirmed a diagnosis of diabetes.
[…] Mice were subjected to 12 hours fast (with water) weighed, blood glucose level was measured and Glucose at 1.5 gr/kg in no more than 100 μl was injected IP. Blood glucose levels were measured at 10, 20, 30, 60, 90 and 120 min after glucose injection. glucose tolerance test.

Assay [5] deals with STZ-induced diabetic ICR mice. Put plainly: Blood glucose over time in STZ mice, short course (2 weeks) AGS treatment with or without insulin. How it is done: as §1, §2
The test system of assay [6] is STZ-induced diabetic mice, kidney glomeruli. Put plainly: Kidney histopathology (PAS staining of glomeruli) in STZ diabetic mice. To be noted: summary statement. How it is done:
Mice were treated as described hereinabove. Following one month of treatment mice were sacrificed and histolopathological examination of the kidney was performed.
FIG. 9 plots the evaluation of a number of parameters assessed via the histopathology analysis.

`CCOCc1cc(C(C)(c2cc(COCC)c(O)c(COCC)c2)c2cc(COCC)c(O)c(COCC)c2)cc(COCC)c1O` [AGS-499, 1,1,1,1-tris (4-hydroxy-3,5-methylene ethoxy-phenyl)-ethane]: in assay [1] (no insulin, daily), the “No of insulin expressing beta islets/mouse” value was 4.3 and the “increase in Insulin expressing Beta islets” value (from here on “increase”) is listed as 165%. Further, in assay [1] (with insulin, AGS daily), the “No of insulin expressing beta islets/mouse” value is reported as 3.5 and the “increase” value came to 135%. For the same molecule, the “mean blood glucose levels in a glucose tolerance test” value in assay [2] (6 mg/Kg subcutaneously or orally every other day, FIG. 11) is “reduced mean blood glucose levels”. The “effect of adding insulin on circulating glucose levels in a glucose tolerance test” value in assay [2] (AGS subcutaneously (AGS500 also orally), FIG. 12) is “adding insulin did not appreciably lower the circulating levels”. Further, the “% reduction in blood glucose level” value in assay [3] (after 12 hours fast, day 142, 6 mg/kg s.c. daily) was determined as 20%. In assay [3] (after 12 hours fast, day 142, 6 mg/kg s.c. daily, in mg/dL (unit assumed)), the “Blood glucose level Average” value was determined as 317. Moreover, in assay [3] (no insulin, daily), the “% reduction In blood Glucose 101 day” value is on record as 29%, the “Blood Glucose At 101 day” value turned out to be 500, the “Blood Glucose At 111 day” value turned out to be 500 and the “reduction In blood Glucose 111 day” value turned out to be 17%. Besides, the “Blood Glucose At 101 day” value in assay [3] (with insulin (4 units/kg every 48 hours), AGS daily) worked out at 480. In assay [3] (with insulin, AGS daily), the “% reduction In blood Glucose 101 day” value was found to be 32%, the “Blood Glucose At 111 day” value is on record as 400 and the “reduction In blood Glucose 111 day” value was found to be 34%. The “Improvement (fold)” value in assay [4] (GTT after 2 months) worked out at 3 fold. Moreover, the “Fold of Improvement” value in assay [4] (GTT after 5 months) turned out to be 3 fold. Also, in assay [4] (GTT), the “Time needed for the Pancreas to cope glucose load after 5 months” value was 30 min and the “Time needed for the Pancreas to cope with glucose load after 2 months” value turned out to be 30 min. In addition, in assay [5] (6 mg/Kg every other day, short course (2 weeks), FIG. 13-1), the “circulating glucose levels over time” value is “lowering circulating glucose levels significantly”. The “circulating glucose levels over time, combined with insulin therapy” value in assay [5] (short course, insulin 0.5-6 units/Kg, FIG. 13-2) was “synergistic contribution”.

As to `CCOCc1cc(C(C)(c2cc(COCC)c(O)c(COCC)c2)c2cc(COCC)c(O)c(COCC)c2)cc(COCC)c1O` [formula XIII], the “pancreatic beta cell mass” value in assay [1] is recorded as “increase of pancreatic beta cell mass”. Also, the “kidney damage in diabetic subjects” value in assay [6] is reported as “reduced kidney damage”. For the same molecule, the “circulating glucose levels in diabetic animals” value in assay [3] is “promoted reduction of circulating glucose levels”.

`CC(c1cc(Br)c(O)c(Br)c1)(c1cc(Br)c(O)c(Br)c1)c1cc(Br)c(O)c(Br)c1` [formula XIV]: the “pancreatic beta cell mass” value in assay [1] is “increase of pancreatic beta cell mass”. Also, in assay [6], the “kidney damage in diabetic subjects” value was “reduced kidney damage”. In addition, the “circulating glucose levels in diabetic animals” value in assay [3] is given as “promoted reduction of circulating glucose levels”.

For `CC(c1cc(CN2CCCC2)c(O)c(CN2CCCC2)c1)(c1cc(CN2CCCC2)c(O)c(CN2CCCC2)c1)c1cc(CN2CCCC2)c(O)c(CN2CCCC2)c1` [formula XI], the “pancreatic beta cell mass” value in assay [1] is “increase of pancreatic beta cell mass”. The “kidney damage in diabetic subjects” value in assay [6] was “reduced kidney damage”. Further, the “circulating glucose levels in diabetic animals” value in assay [3] is on record as “promoted reduction of circulating glucose levels”.

On to “insulin: insulin (4 units/kg) in HEPES buffer injected every 48 hours [reference compound]”, for which, in assay [1] (insulin alone (STZ, DMSO)), the “No of insulin expressing beta islets/mouse” value turned out to be 3.25 and the “increase” value came out at 125%. In addition, the “circulating glucose levels in control groups” value in assay [3] (insulin 4 U/Kg every 2 days, STZ-induced diabetic mice, FIG. 2C) is reported as “lowered circulating glucose levels in control groups”. Also, the “Blood Glucose At 101 day” value in assay [3] (insulin only (4 units/kg every 48 hours), STZ or STZ + vehicle groups) is given as 700. In addition, the “Blood Glucose At 111 day” value in assay [3] (insulin only, STZ or STZ + vehicle groups) was 600.
